In patent US11957693B2, “Combination MCL-1 inhibitors with anti-cancer agents” (Gilead Sciences, Inc., priority 2021, dated 2024):
Entries after “also recorded” stand apart in the source; their conditions may differ.

Legend:
Type in all cases: cell-based
[1] = tested on: panel of breast cancer cell lines; experiment: 72-hour in vitro proliferation combination assay, compound A with targeted agents and chemotherapies (Example 3, Table 21)
MCL1-BIM Dimer = experiment: MCL1-BIM dimer MSD assay in TNBC cell lines after paclitaxel; settings: HCC70, MDA-MB-468, HCC1806; paclitaxel 1 μM for 4 hours, overnight incubation
Description: (§1) Cell lysates for MSD assays were generated using 1× Lysis Buffer (10× cell signaling CST-9803) 100× Protease Inhibitor, Phosphatase Inhibitor I, Phosphatase Inhibitor II (Meso Scale Discovery Inhibitor Pack R70AA-1, and PMSF (SIGMA cat #7626)
(§2) MCL-BAK and MCL1-BIM dimer assays and total MCL1 assay were developed by MSD Custom Assay Services and run using the MSD U-PLEX Development Pack (K15227N) and protocols' revision “2018 March rev 2”. GAPDH was determined by MSD using standard assay K151PWD. All plates were read on MSD SECTOR Imager 2400 using MSD Read Buffer T (R92TC).
(§3) For MSD assays, TNBC cell lines were seeded 25,000 cells per well in clear-bottomed white 96-well plates (Corning #3909) in recommended cell culture medium. Plates were incubated at 37° C. and 100% RH for 20 hours prior to compound exposure. […] After an additional 20 hours, samples were harvested by aspirating away supernatant and 125 μl of 1× lysis buffer was added to each well. Plates were set on ice briefly and transferred to a rocking platform at 4° C. for 20 minutes. Plates were placed on dry ice, snap frozen for 10 minutes then stored at −80° C. until tested.
(§4) MCL1 and MCL1-BAK and MCL1-BIM dimer assays were run using materials and protocols provided by MSD Custom Assay Services based on their U-Plex technology. […] 150 μl of 2× read buffer was added to each well and plates were read on an MSD SECTOR Imager 2400. […]

MCL1 = experiment: Total MCL1 MSD assay in TNBC cell lines after paclitaxel; settings: HCC70, MDA-MB-468, HCC1806; paclitaxel 1 μM for 4 hours, overnight incubation
Description: as §1, §2, §3, §4

FBXW7 = FBXW7 expression by Protein Simple (Simple Western) in TNBC cell lines after paclitaxel; settings: HCC70, MDA-MB-468, HCC1806; paclitaxel 1 μM for 4 hours, overnight incubation
Description: Simple Western immunoassays take place in a capillary. Samples and reagents are loaded into an assay plate and placed in a Protein Simple Instrument. Cell lysates are loaded into the capillary automatically and separated by size as they migrate through a stacking and separation matrix. The separated proteins are then immobilized to the capillary wall via a proprietary, photoactivated capture chemistry. Target proteins are identified using a primary antibody and immunoprobed using an HRP-conjugated secondary antibody and chemiluminescent substrate. The resulting chemiluminescent signal is detected and quantitated.
Lysates were prepared, diluted to 0.5 ug/ml in 1× lysis buffer. Simple Western platform is run on a 384-well plate.
Markers, internal ladders and DTT are provided by Simple Western in lyophilized forms. Reagents are resuspended as protocol describes. 20 uL of water is added to the markers. 40 ul of water is added to DTT, 20 ul of 10× sample buffer and 20 ul of DTT is mixed and called Z buffer. Markers are loaded in 1 A. 5 ul of lysate was added to 1.7 ml Eppendorf tube. 1.2 ul of Z reagent was added to each sample. The samples were heated at 100 C for 5 minutes, allowed to cool than spun in a microfuge for 30 seconds. Samples are loaded in wells A2-12. […] The resulting chemiluminescent signal is detected and quantitated.

HCC70 = experiment: Cell viability combination assay (Cell Titer Glo, Bliss synergy matrix), paclitaxel 4 h pretreatment then compound A; settings: Homo sapiens, HCC70, 4 h; read-out: Percent Inhibition
Description: (§5) Cells were passaged according to ATCC guidelines with 0.25% Trypsin/EDTA (1× GIBCO-25200).
(§6) Viability assessments were performed using Cell Titer Glo™ (Promega #G9241) according to manufactures microwell plate protocol and read for luminescence on Synergy Neo2 plate reader.
(§7) For synergy matrix assays, TNBC cell lines were seeded 10,000 cells per well in clear-bottomed white 96-well plates (Corning #3909) in 100 μL of recommended cell culture medium. Plates were incubated at 37° C. and 100% RH for 20 hours prior to compound exposure.
(§8) Cells were then exposed to compound A with the same checkerboard matrix using D300 dispenser and incubated for 48 hours prior to measurement of viability by Cell Titer Glo.
(§9) Calculated values were compared to experimental results generated in the sixty-three-concentration checkerboard. Synergy or antagonism scores were generated depending on whether the observed growth inhibition was greater than or less than the calculated values, respectively.
(§10) These differences were summed up across the whole checker-board (sixty-three wells) to give cumulative synergy and antagonism scores with units of μM^2% to reflect the 2D surface of the dose responses.
(§11) Data for combination assays is presented in three formats.

MDA-MB-468 = experiment: as above; settings: Homo sapiens, MDA-MB-468, 4 h; read-out: Percent Inhibition
Description: as §5, §6, §7, §8, §9, §10, §11

MCL1-BAK Dimer = experiment: MCL1-BAK dimer MSD assay in TNBC cell lines after paclitaxel; settings: HCC70, MDA-MB-468, HCC1806; paclitaxel 1 μM for 4 hours, overnight incubation
Description: as §1, §2, §3, §4

N.N.O=C([O-])C1(C(=O)[O-])CCC1.[Pt+2] [Carboplatin]
Best CI Level ([1]; AU565 cell line, compound A × listed agent, 72-hour in vitro proliferation assay): 40
Best CI Level ([1]; BT-20 cell line, compound A × listed agent, 72-hour in vitro proliferation assay): 170
Best CI Level ([1]; CAL-51 cell line, compound A × listed agent, 72-hour in vitro proliferation assay): 165
Best CI Level ([1]; CAL-85-1 cell line, compound A × listed agent, 72-hour in vitro proliferation assay): 110
Best CI Level ([1]; CAMA-1 cell line, compound A × listed agent, 72-hour in vitro proliferation assay): 180
Best CI Level ([1]; DU-4475 cell line, compound A × listed agent, 72-hour in vitro proliferation assay): 180
Best CI Level ([1]; EVSA-T cell line, compound A × listed agent, 72-hour in vitro proliferation assay): 180

CC(=O)O[C@H]1C(=O)[C@@]2(C)[C@H]([C@H](OC(=O)c3ccccc3)[C@]3(O)C[C@H](OC(=O)[C@H](O)[C@@H](NC(=O)c4ccccc4)c4ccccc4)C(C)=C1C3(C)C)[C@]1(OC(C)=O)CO[C@@H]1C[C@@H]2O [Paclitaxel]
protein levels of MCL1-BIM dimers vs vehicle control (in words) (MCL1-BIM Dimer): Decreases; also recorded: reduced
MCL1 protein levels vs vehicle control (in words) (MCL1): Decreases; also recorded: reduced
FBXW7 protein levels vs vehicle control (in words) (FBXW7): Increases; also recorded: elevated
inhibition at 0.0005 µM (HCC70): -2.3%
inhibition at 1 µM (HCC70): 53.3%
inhibition at 3 µM (HCC70): 61.4%
inhibition at 0.0005 µM (MDA-MB-468): 1.1%
inhibition at 1 µM (MDA-MB-468): 65.1%
inhibition at 3 µM (MDA-MB-468): 70.5%
protein levels of MCL1-BAK dimers vs vehicle control (in words) (MCL1-BAK Dimer): Decreases; also recorded: reduced

CC(=O)O[C@@]12CO[C@@H]1C[C@H](O)[C@@]1(C)C(=O)[C@H](O)C3=C(C)[C@@H](OC(=O)[C@H](O)[C@@H](NC(=O)OC(C)(C)C)c4ccccc4)C[C@@](O)([C@@H](OC(=O)c4ccccc4)[C@H]21)C3(C)C [Docetaxel]
Best CI Level ([1]; 72 h): 170
